Four molecules from ChEMBL document CHEMBL5331135, “Design, Synthesis, and Evaluation of Glucose Transporter Inhibitor-SN38 Conjugates for Targeting Colorectal Cancer” (J Med Chem, 2023) can be followed below.

The test system of data set [1] is COLO 205. Kind of data set: Cytotoxicity against human COLO 205 cells incubated for 48 hrs by SRB assay. It counts as functional, cell-based. To be noted: COLO 205, 48 h. For orientation: Sulforhodamine B stains cellular protein and so reports cell mass.
Data set [2] has as its system HCT-116. Kind of data set: Cytotoxicity against human HCT-116 cells incubated for 48 hrs by SRB assay. To be noted: HCT-116, 48 h. It counts as functional, cell-based.
The test system of data set [3] is HT-29. Kind of data set: Cytotoxicity against human HT-29 cells incubated for 48 hrs by SRB assay. It counts as functional, cell-based. To be noted: HT-29, 48 h.
In data set [4] the test system is HCT-116. Kind of data set: Cytotoxicity against human HCT-116 cells incubated for 48 hrs in presence of SN38 by SRB assay. Format: functional, cell-based. Conditions: HCT-116, 48 h.
Data set [5] in a line: Toxicity in AOM/DSS-induced orthotopic CRC BALB/c mouse model assessed as lesions in liver at 15 mg/kg, iv administered once every 2 days for 2 weeks by H&E staining based analysis. Format: organism-based. Conditions: in vivo, 336 h.
A short description of data set [6]: Toxicity in AOM/DSS-induced orthotopic CRC BALB/c mouse model assessed as body weight loss at 15 mg/kg, iv administered once every 2 days for 2 weeks. Format: organism-based. Conditions: in vivo, 336 h.
For data set [7], the system named is HT-29. Kind of data set: Cytotoxicity against human HT-29 cells incubated for 48 hrs in presence of SN38 by SRB assay. Format: functional, cell-based. To be noted: HT-29, 48 h.
Data set [8] is described as follows: Toxicity in AOM/DSS-induced orthotopic CRC BALB/c mouse model assessed as lesions in stomach at 15 mg/kg, iv administered once every 2 days for 2 weeks by H&E staining based analysis. It counts as organism-based. Conditions: in vivo, 336 h.
The test system of data set [9] is COLO 205. Kind of data set: Cytotoxicity against human COLO 205 cells incubated for 48 hrs in presence of SN38 by SRB assay. It counts as functional, cell-based. To be noted: COLO 205, 48 h.
Data set [10] is described as follows: Toxicity in AOM/DSS-induced orthotopic CRC BALB/c mouse model assessed as lesions in kidney at 15 mg/kg, iv administered once every 2 days for 2 weeks by H&E staining based analysis. Format: organism-based. Conditions: in vivo, 336 h.
A short description of data set [11]: Toxicity in AOM/DSS-induced orthotopic CRC BALB/c mouse model assessed as lesions in lung at 15 mg/kg, iv administered once every 2 days for 2 weeks by H&E staining based analysis. It counts as organism-based. Conditions: in vivo, 336 h.
Data set [12] in a line: Toxicity in AOM/DSS-induced orthotopic CRC BALB/c mouse model assessed as lesions in spleen at 15 mg/kg, iv administered once every 2 days for 2 weeks by H&E staining based analysis. It counts as organism-based. Conditions: in vivo, 336 h.
The nature of data set [13]: Toxicity in AOM/DSS-induced orthotopic CRC BALB/c mouse model assessed as lesions in heart at 15 mg/kg, iv administered once every 2 days for 2 weeks by H&E staining based analysis. Format: organism-based. Conditions: in vivo, 336 h.
Data set [14] is described as follows: Biodistribution in gastrointestinal tract of BALB/c mouse at 20 mg/kg, ip measured after 4 hrs by UHPLC-MS/MS analysis. It counts as ADME, organism-based. Conditions: in vivo.
A short description of data set [15]: Biodistribution in colorectal tumor site of BALB/c mouse at 20 mg/kg, ip measured after 4 hrs by UHPLC-MS/MS analysis. Format: ADME, organism-based, Neoplasm. Conditions: in vivo.
A short description of data set [16]: Drug uptake in human COLO 205 cells assessed as drug internalization in presence of 4.5 g/L glucose by fluorescence based assay. Format: ADME, cell-based.
Data set [17] in a line: Stability in human plasma assessed as half life by RP-HPLC analysis. It counts as ADME, cell-free.
Data set [18] is described as follows: Toxicity in AOM/DSS-induced orthotopic CRC BALB/c mouse model assessed as body weight loss at 20 mg/kg, ip administered every other day for 2 weeks. It counts as organism-based. Conditions: in vivo, 336 h.
The nature of data set [19]: Prodrug conversion in lung of BALB/c mouse assessed as SN38 release at 20 mg/kg, ip measured after 4 hrs by UHPLC-MS/MS analysis. Format: ADME, organism-based. Conditions: in vivo.
Data set [20] is described as follows: Prodrug conversion in kidney of BALB/c mouse assessed as SN38 release at 20 mg/kg, ip measured after 4 hrs by UHPLC-MS/MS analysis. Conditions: in vivo. Format: ADME, organism-based.
Data set [21] in a line: Prodrug conversion in tumor of BALB/c mouse assessed as SN38 release at 20 mg/kg, ip measured after 4 hrs by UHPLC-MS/MS analysis. It counts as ADME, organism-based, Neoplasm. Conditions: in vivo.
Data set [22] can be described thus: Drug uptake in plasma of BALB/c mouse at 20 mg/kg, ip measured after 3 hrs by UHPLC-MS/MS analysis. To be noted: in vivo. Format: ADME, organism-based.
A short description of data set [23]: Prodrug conversion in brain of BALB/c mouse assessed as SN38 release at 20 mg/kg, ip measured after 4 hrs by UHPLC-MS/MS analysis. It counts as ADME, organism-based. To be noted: in vivo.
Data set [24] in a line: Prodrug conversion in spleen of BALB/c mouse assessed as SN38 release at 20 mg/kg, ip measured after 4 hrs by UHPLC-MS/MS analysis. It counts as ADME, organism-based. Conditions: in vivo.
A short description of data set [25]: Prodrug conversion in heart of BALB/c mouse assessed as SN38 release at 20 mg/kg, ip measured after 4 hrs by UHPLC-MS/MS analysis. Format: ADME, organism-based. Conditions: in vivo.
A short description of data set [26]: Prodrug conversion in liver of BALB/c mouse assessed as SN38 release at 20 mg/kg, ip measured after 4 hrs by UHPLC-MS/MS analysis. It counts as ADME, organism-based. To be noted: in vivo.
Data set [27] can be described thus: Prodrug conversion in stomach of BALB/c mouse assessed as SN38 release at 20 mg/kg, ip measured after 4 hrs by UHPLC-MS/MS analysis. It counts as ADME, organism-based. Conditions: in vivo.
A short description of data set [28]: Prodrug conversion in intestine of BALB/c mouse assessed as SN38 release at 20 mg/kg, ip measured after 4 hrs by UHPLC-MS/MS analysis. It counts as ADME, organism-based. To be noted: in vivo.
The next data set deals with Colorectal cancer cell. Kind of data set: Antitumor activity against AOM/DSS-induced orthotopic CRC BALB/c mouse model assessed as reduction in tumor area at 20 mg/kg, ip administered every other day for 2 weeks by dissecting microscopic analysis. It counts as functional, organism-based.
A short description of data set [29]: Toxicity in AOM/DSS-induced orthotopic CRC BALB/c mouse model assessed as body weight loss at 13 mg/kg, iv administered once every 2 days for 2 weeks. Format: organism-based. Conditions: in vivo, 336 h.
The nature of data set [30]: Antitumor activity against AOM/DSS-induced orthotopic CRC BALB/c mouse model assessed as reduction in tumor area at 13 mg/kg, iv administered once every 2 days for 2 weeks by dissecting microscopic analysis relative to control. It counts as functional, Colorectal cancer cell. Details: scale not given: the % may be the effect or the level left.
Data set [31] is described as follows: Toxicity in AOM/DSS-induced orthotopic CRC BALB/c mouse model assessed as lesions in spleen at 13 mg/kg, iv administered once every 2 days for 2 weeks by H&E staining based analysis. It counts as organism-based. Conditions: in vivo, 336 h.
A short description of data set [32]: Toxicity in AOM/DSS-induced orthotopic CRC BALB/c mouse model assessed as lesions in heart at 13 mg/kg, iv administered once every 2 days for 2 weeks by H&E staining based analysis. Format: organism-based. To be noted: in vivo, 336 h.
A short description of data set [33]: Toxicity in AOM/DSS-induced orthotopic CRC BALB/c mouse model assessed as lesions in liver at 13 mg/kg, iv administered once every 2 days for 2 weeks by H&E staining based analysis. To be noted: in vivo, 336 h. Format: organism-based.
Data set [34] in a line: Toxicity in AOM/DSS-induced orthotopic CRC BALB/c mouse model assessed as lesions in lung at 13 mg/kg, iv administered once every 2 days for 2 weeks by H&E staining based analysis. Format: organism-based. To be noted: in vivo, 336 h.
Data set [35] is described as follows: Toxicity in AOM/DSS-induced orthotopic CRC BALB/c mouse model assessed as lesions in stomach at 13 mg/kg, iv administered once every 2 days for 2 weeks by H&E staining based analysis. Format: organism-based. Conditions: in vivo, 336 h.
A short description of data set [36]: Toxicity in AOM/DSS-induced orthotopic CRC BALB/c mouse model assessed as lesions in kidney at 13 mg/kg, iv administered once every 2 days for 2 weeks by H&E staining based analysis. Format: organism-based. To be noted: in vivo, 336 h.
Data set [37] can be described thus: Toxicity in AOM/DSS-induced orthotopic CRC BALB/c mouse model assessed as body weight loss at 14 mg/kg, ip administered every other day for 2 weeks in presence of Irinotecan. It counts as organism-based. Conditions: in vivo, 336 h.
Data set [38] in a line: Antitumor activity against AOM/DSS-induced orthotopic CRC BALB/c mouse model assessed as reduction in tumor area at 13 mg/kg, iv administered once every 2 days for 2 weeks in presence of SN38 by dissecting microscopic analysis relative to control. Further details: scale not given: the % may be the effect or the level left. It counts as functional, Colorectal cancer cell.

Calls of active or inactive are those of the source. The calls are words filed in the database; no cut-off is given here.

As a reminder, the IC50 is the midpoint of a concentration-inhibition curve. Turning to `CCc1c2c(nc3ccc(O)cc13)-c1cc3c(c(=O)n1C2)COC(=O)[C@]3(O)CC` [7-ETHYL-10-HYDROXYCAMPTOTHECIN], the IC50 came out at 0.75 nM in the data set on COLO 205 [1], 54.9 nM in the data set with HCT-116 [2] and 430 nM in the data set with HT-29 [3].

Take `O=C(CCc1ccc(O)cc1)c1c(O)cc(OCCOCCOCCS)cc1O[C@@H]1O[C@H](CO)[C@@H](O)[C@H](O)[C@H]1O`: the IC50 in the data set with HCT-116 [4] was 45.4 nM; in the data set with HT-29 [7] it was 330 nM; in the data set on COLO 205 [1], more than 100000 nM; in the data set on COLO 205 [9], 140 nM; in the data set with HCT-116 [2] it was more than 100000 nM; in the data set on HT-29 [3], more than 100000 nM. Besides, the Activity result in [5], in data set [6], in [8], in data set [10], in [11] and in [12] was “Non-Toxic” each time. For the same molecule, the Activity entry in data set [13] is reported as “Non-Toxic”.

As a reminder, the half-life is how long it takes for the measured level to halve. Turning to `CCc1c2c(nc3ccc(OC(=O)OCCSSCCOCCOCCOc4cc(O)c(C(=O)CCc5ccc(O)cc5)c(O)c4)cc13)-c1cc3c(c(=O)n1C2)COC(=O)[C@]3(O)CC`, the Drug uptake entry is listed as “Active” in [14], “Active” in data set [15], “Active” in [16] and “Not Active” in data set [22]. Further, the IC50 in the data set with COLO 205 [1] came to 570 nM; in the data set on HCT-116 [2], 34.1 nM; in the data set on HT-29 [3], 310 nM. The half-life in data set [17] was 50 min. Further, the Activity entry in data set [18] is listed as “Non-Toxic”. In addition, the Drug metabolism result in data set [19], in data set [20], in [21], in data set [23], in data set [24] and in data set [25] was “Metabolite_Detected” throughout. In addition, the Drug metabolism result in [26], in data set [27] and in data set [28] was “Metabolite_Detected” each time. Also, the result with Colorectal cancer cell was Active.

Turning to `O=C(CCc1ccc(O)cc1)c1c(O)cc(OCCOCCOCCS)cc1O`, the Activity result in data set [29] was “Non-Toxic”; in [30] it was 35%; in [31] it was “Non-Toxic”; in [32], “Non-Toxic”; in data set [33], “Non-Toxic”; in [34] it was “Non-Toxic”. The Activity result in data set [35] is recorded as “Non-Toxic”; in [36], “Non-Toxic”; in [37], “Non-Toxic”; in data set [38], 55%. For the same molecule, the IC50 was 56.5 nM with HCT-116 [4], 360 nM in the data set on HT-29 [7], more than 100000 nM with COLO 205 [1] and 150 nM in the data set with COLO 205 [9].
